The target of one experiment is T1, Flt-1 (Homo sapiens, UniProt P17948).
T1 construct: GST-fusion proteins of the kinase domains of several tyrosine kinase receptors; GST
T1 sequence (P17948 827-1158 limits assumed): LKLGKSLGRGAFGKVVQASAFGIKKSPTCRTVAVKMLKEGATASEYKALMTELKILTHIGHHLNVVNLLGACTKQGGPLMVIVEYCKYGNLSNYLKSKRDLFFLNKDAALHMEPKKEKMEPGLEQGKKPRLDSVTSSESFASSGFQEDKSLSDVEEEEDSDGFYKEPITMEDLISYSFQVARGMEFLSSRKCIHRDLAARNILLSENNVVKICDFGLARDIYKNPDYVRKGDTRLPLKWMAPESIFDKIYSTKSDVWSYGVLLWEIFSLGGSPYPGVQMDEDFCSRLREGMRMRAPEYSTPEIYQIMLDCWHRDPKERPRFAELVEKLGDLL
Briefly: standard tyrosine kinase assay: phosphorylation of poly(GluTyr) by GST-fusion kinase domain. The class given is biochemical.

A further experiment relates to PDGF receptors. The experiment can be described thus: cellular autophosphorylation assay, transfected Chinese hamster ovary cells. The class given is cell-based.
Another experiment deals with c-Kit (Homo sapiens, UniProt P10721). Conditions: transfected Chinese hamster ovary cells.
For another experiment, the system named is C57BL/6 mice. The experiment can be described thus: VEGF-induced BRB breakdown measured with [3H]mannitol as tracer after topical administration. It counts as in vivo. Conditions: suspension topically in one eye twice a day for 3 days prior to intraocular injection of VEGF.
Another experiment has as its system VEGF receptors. The experiment can be described thus: cellular autophosphorylation assay, transfected Chinese hamster ovary cells.
The target of another experiment is c-erbB2 (Homo sapiens, UniProt P04626). The experiment is described as above.
Another experiment addresses insulin receptor (Homo sapiens, UniProt P06213). Described as above.
Experiment [1] has as its system other RTKs including VEGF receptors. Briefly: standard tyrosine kinase assay, other RTKs. It counts as biochemical.
Experiment [2] has as its system other receptors tested including VEGF receptors. Briefly: cellular autophosphorylation assay, transfected Chinese hamster ovary cells.
Protocol: (§1) In vivo activity requires drugs to enter cells and therefore agents are tested in cellular autophosphorylation assays, using Chinese hamster ovary cells transfected with one of several RTK genes.

insulin receptor, sequence (P06213 28-1382, species assumed): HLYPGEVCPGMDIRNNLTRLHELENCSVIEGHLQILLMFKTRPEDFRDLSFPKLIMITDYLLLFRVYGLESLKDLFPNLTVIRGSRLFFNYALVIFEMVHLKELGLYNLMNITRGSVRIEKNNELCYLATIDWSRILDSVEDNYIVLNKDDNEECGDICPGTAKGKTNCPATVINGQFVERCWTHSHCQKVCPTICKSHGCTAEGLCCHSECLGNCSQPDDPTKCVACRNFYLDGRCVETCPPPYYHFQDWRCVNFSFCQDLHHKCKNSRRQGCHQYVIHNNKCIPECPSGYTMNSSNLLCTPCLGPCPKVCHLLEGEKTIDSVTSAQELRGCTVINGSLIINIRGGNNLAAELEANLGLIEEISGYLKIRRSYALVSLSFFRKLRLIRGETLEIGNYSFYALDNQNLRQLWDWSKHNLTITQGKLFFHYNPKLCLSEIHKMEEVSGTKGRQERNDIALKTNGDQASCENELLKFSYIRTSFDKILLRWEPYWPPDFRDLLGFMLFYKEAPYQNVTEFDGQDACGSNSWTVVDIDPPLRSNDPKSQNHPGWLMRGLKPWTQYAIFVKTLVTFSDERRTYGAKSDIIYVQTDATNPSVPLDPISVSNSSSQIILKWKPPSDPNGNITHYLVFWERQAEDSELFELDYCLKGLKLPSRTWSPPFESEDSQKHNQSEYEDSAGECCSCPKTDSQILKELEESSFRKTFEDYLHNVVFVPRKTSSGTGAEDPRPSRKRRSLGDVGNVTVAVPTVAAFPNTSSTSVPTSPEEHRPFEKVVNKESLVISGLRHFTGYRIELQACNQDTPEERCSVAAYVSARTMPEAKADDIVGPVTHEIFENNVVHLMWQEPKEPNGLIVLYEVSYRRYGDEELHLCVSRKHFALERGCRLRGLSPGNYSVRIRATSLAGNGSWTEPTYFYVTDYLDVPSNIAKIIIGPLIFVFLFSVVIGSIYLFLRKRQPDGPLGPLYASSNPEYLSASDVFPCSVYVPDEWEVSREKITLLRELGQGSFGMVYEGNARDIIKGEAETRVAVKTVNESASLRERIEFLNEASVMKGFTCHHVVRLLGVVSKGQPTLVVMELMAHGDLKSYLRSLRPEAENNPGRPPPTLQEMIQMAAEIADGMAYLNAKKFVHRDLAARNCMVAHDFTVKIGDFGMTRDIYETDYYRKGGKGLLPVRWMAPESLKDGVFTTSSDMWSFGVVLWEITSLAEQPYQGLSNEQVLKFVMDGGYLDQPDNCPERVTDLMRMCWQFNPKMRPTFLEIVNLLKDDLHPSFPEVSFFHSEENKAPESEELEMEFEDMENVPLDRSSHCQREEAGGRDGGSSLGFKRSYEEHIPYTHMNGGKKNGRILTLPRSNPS
c-erbB2, sequence (P04626 23-1255): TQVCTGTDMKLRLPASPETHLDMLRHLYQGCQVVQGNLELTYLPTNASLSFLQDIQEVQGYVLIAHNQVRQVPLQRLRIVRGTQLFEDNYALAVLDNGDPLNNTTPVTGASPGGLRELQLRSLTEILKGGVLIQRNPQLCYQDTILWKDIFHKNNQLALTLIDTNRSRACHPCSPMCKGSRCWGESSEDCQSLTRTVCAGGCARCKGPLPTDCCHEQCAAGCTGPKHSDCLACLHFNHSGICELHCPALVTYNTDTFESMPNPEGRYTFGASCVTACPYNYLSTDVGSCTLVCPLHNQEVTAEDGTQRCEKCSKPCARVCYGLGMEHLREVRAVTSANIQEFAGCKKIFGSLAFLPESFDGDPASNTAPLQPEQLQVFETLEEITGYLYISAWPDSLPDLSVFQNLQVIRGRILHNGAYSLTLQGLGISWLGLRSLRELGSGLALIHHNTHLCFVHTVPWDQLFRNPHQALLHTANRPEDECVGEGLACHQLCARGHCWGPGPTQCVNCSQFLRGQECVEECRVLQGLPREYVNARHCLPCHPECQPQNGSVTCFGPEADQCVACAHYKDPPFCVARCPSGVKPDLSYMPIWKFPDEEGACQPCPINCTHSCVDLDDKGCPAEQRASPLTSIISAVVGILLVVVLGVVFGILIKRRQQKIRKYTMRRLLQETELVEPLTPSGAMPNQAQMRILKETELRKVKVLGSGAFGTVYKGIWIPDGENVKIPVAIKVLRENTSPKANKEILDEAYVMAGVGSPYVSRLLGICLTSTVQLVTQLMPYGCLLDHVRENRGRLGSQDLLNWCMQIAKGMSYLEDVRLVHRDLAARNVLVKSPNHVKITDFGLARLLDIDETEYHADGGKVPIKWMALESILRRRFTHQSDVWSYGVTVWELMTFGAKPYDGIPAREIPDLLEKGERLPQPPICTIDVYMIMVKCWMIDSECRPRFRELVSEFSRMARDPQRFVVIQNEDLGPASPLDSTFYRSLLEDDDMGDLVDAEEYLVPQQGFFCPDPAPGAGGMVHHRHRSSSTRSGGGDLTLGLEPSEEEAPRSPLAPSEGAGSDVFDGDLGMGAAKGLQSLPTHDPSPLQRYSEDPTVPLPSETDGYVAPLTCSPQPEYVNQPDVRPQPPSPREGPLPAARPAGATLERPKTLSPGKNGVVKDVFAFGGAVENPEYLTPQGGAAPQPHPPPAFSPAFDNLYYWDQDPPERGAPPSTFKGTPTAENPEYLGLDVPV
c-Kit, sequence (P10721 26-976): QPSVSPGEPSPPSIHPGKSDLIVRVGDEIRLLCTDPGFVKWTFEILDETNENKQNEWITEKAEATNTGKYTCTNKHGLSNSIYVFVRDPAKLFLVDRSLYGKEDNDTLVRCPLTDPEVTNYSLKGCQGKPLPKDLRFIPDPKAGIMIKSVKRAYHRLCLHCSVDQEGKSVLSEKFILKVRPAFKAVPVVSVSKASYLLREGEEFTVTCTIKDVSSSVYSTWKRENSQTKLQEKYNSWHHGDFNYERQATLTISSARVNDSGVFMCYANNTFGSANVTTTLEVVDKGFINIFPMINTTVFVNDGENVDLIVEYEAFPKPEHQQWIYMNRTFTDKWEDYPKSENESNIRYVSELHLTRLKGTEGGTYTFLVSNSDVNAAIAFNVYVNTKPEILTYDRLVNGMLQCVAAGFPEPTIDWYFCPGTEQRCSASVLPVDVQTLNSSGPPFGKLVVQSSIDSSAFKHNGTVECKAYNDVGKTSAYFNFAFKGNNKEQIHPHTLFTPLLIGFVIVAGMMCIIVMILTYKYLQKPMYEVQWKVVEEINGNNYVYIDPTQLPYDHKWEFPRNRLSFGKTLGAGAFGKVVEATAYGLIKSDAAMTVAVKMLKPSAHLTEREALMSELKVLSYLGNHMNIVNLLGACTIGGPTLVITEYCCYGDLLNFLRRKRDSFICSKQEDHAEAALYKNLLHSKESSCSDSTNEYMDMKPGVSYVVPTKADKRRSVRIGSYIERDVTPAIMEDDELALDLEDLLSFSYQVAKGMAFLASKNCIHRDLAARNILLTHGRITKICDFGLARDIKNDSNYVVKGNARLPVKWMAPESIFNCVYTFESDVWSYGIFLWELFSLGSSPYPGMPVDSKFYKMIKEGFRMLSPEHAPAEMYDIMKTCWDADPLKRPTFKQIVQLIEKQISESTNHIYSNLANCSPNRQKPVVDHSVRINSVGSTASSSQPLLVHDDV
Protocol for C57BL/6 mice: Intraocular injections are performed with a Harvard pump microinjection apparatus and pulled glass micropipets. Each micropipet is calibrated to deliver 1 μL of vehicle upon depression of a foot switch. Mice are anesthetized with 25 mg/kg of ketamine and 4 mg/kg of xylazine, pupils are dilated with 1% tropicamide. Under a dissecting microscope, the sharpened tip of a micropipet is passed through the sclera just behind the limbus into the vitreous cavity, and the foot switch is depressed and 1 μL of 10^−6 M human VEGF (R&D Systems, Minneapolis, Minn.) is injected.
Six or 24 hours after intraocular injections, mice are given an intraperitoneal injection of 1 μCi/g body weight of [^3H]mannitol (New England Nuclear, Boston, Mass.). After one hour, mice are sacrificed and eyes are removed. The cornea and lens are removed and the entire retina is carefully dissected from the eyecup and placed within pre-weighed scintillation vials. […] All liquid is removed from the vials and remaining droplets are allowed to evaporate over 20 minutes. The vials are weighed and the tissue weights are recorded. One mL of NCSII solubilizing solution (Amersham, Chicago, Ill.) is added to each vial and the vials are incubated overnight in a 50° C. water bath. The solubilized tissue is brought to RT and decolorized with 20% benzoyl peroxide in toluene in a 50° C. water bath. […]
Protocol for PDGF receptors: as §1
Protocol for c-erbB2: as §1
Protocol for insulin receptor: as §1

Turning to `Clc1ccc(Nc2nnc(Cc3ccncc3)c3ccccc23)cc1` [PTK 787], the “inhibition of phosphorylation by the kinase domain of human VEGF receptor 1” value against Flt-1 is on record as “good inhibitor”. In the experiment with PDGF receptors, the “inhibition of autophosphorylation of PDGF receptors” value (“inhibition … of PDGF receptors” below) is reported as “inhibits autophosphorylation”. The “inhibition of autophosphorylation of c-Kit” value at c-Kit was “inhibits autophosphorylation”. Moreover, the “RRLR compared to contralateral eyes in the same mice” value in the experiment on C57BL/6 mice is given as “not a significant difference”. The “inhibition of autophosphorylation of VEGF receptors” value with VEGF receptors is “inhibits autophosphorylation”. On c-erbB2, the “inhibition of autophosphorylation of c-erbB2” value is “poor inhibitor”. Besides, the “inhibition of autophosphorylation of insulin receptor” value against insulin receptor is “poor inhibitor”.
With `Cc1ccc(NC(=O)c2ccccc2)cc1Nc1nccc(-c2cccnc2)n1` [CGP 53 716], the “inhibitory activity of other RTKs including VEGF receptors” value in experiment [1] is “little or no inhibitory activity”. Moreover, the “inhibition … of PDGF receptors” value in the experiment with PDGF receptors is given as “potent inhibitors”. Also, the “inhibition of autophosphorylation of other receptors tested including VEGF receptors” value in [2] was “poor inhibitors”.
In the case of `Cc1ccc(NC(=O)c2ccc(CN3CCN(C)CC3)cc2)cc1Nc1nccc(-c2cccnc2)n1` [CGP 57 148], in experiment [1], the “inhibitory activity of other RTKs including VEGF receptors” value is listed as “little or no inhibitory activity”. The “inhibition … of PDGF receptors” value in the experiment with PDGF receptors is recorded as “potent inhibitors”. Also, the “inhibition of autophosphorylation of other receptors tested including VEGF receptors” value in experiment [2] is given as “poor inhibitors”.
